Reference: US20160100573A1, “QUATERNARY ORGANOSILICON SURFACTANTS, METHODS OF MAKING SAME AND APPLICATIONS CONTAINING THE SAME” (Momentive Performance Materials Inc., priority 2014, published 2016)

Experiments:
[1] = Aqueous surface tension by Wilhelmy Plate method (Kruss Tensiometer); type: physicochemical; conditions: ~22° C.; for CMC: 0.005M NaCl
Description: The aqueous surface tension of the various surfactants was determined by the Wilhelmy Plate method using a sand-blasted platinum blade as the sensor. Measurements were made using a Kruss surface Tensiometer. Surfactant solutions were prepared between 0.00001% and 1 wt % in 0.005M NaCl at ambient temperatures (˜22° C.).

[2] = Spreading of surfactant solutions on polystyrene surface (spread diameter after 30 seconds); type: physicochemical; set-up: unit not given here
Description: Spreading was determined using between 0.1% and 0.4% (actives) surfactant. Solutions were prepared in Milli-Pore water (deionized) where a 10 μl, drop was placed on a polystyrene surface (Petri-dish) and the spread diameter determined after 30 seconds.

[3] = Dispersibility / cloud point of surfactant in glyphosate-isopropyl amine 480 g/L formulation; type: physicochemical; conditions: for Cloud Point (50 g/L): surfactant at 5% in glyphosate 480 g/L formulation
Description: Aqueous glyphosate-isopropyl amine (480 g/L) formulations containing 5% of either Comparative-B or the composition of the present invention were prepared and evaluated for dispersion properties. The formulations were visually observed for clarity at 20-22° C., and if clear to hazy, the cloud point was also measured.
Cloud point was determined by placing 15 mL of formulation in a 20 dram vial containing a digital thermometer, and slowly heating the mixture on a magnetic stirrer/hot plate. The temperature at which the solution became opaque was recorded as the cloud point.

[4] = Impact of cosurfactant on spreading of QC-1A on polystyrene surface; type: physicochemical; conditions: 0.2 wt % QC-1A, 0 wt % cosurfactant
Description: Spreading was determined using 0.2% (actives) total surfactant solutions, where a […] was placed on a polystyrene surface and the spread diameter determined after 30 seconds. The ratio of QC-1A to Cosurfactant was varied to determine the potential for synergistic or antagonistic effects from interaction between the two surfactants. The spread results (Actual) for each set were compared to a predicted value (weighted average) based on a linear relationship between QC-1A and the Cosurfactant.

[5] = system: Barnyardgrass (Echinochloa crus-galli); assay: Effect of adjuvant on uptake of 14C-glyphosate isopropylamine salt into Barnyardgrass; type: in vivo
Description: In one other embodiment herein the quaternary organosilicon surfactant composition of the present invention is such that the foliar uptake of various agricultural chemicals is faster for applications containing the quaternary organosilicon having the general formula (I) than that for equivalent applications containing a tallow amine ethoxylate.
Uptake of ^14C-glyphosate (herbicide) into Barnyardgrass (Echinochloa crus-galli) was determined at 2 and 24 hours after treatment (HAT) according to the method described by Gaskin et al. (Gaskin, R. E.; Stevens, P. J. G. 1992. Pestic. Sci. 38: 185-192.), to establish the impact of surfactant on the speed of uptake. Uptake was determined on adaxial surface of youngest fully expanded leaf; plant at 4 leaf stage, ca 10 cm tall.

[6] = 1.00E+00 weight % surfactant in 0.005M NaCl
[7] = 1.00E-01 weight % surfactant in 0.005M NaCl
[8] = 1.00E-02 weight % surfactant in 0.005M NaCl
[9] = 1.00E-03 weight % surfactant in 0.005M NaCl
[10] = 1.00E-04 weight % surfactant in 0.005M NaCl
[11] = 1.00E-05 weight % surfactant in 0.005M NaCl
[12] = 3.00E-03 weight % surfactant in 0.005M NaCl
[13] = 0.1 wt % surfactant (actives) in deionized water
[14] = 0.2 wt % surfactant (actives) in deionized water
[15] = 0.4 wt % surfactant (actives) in deionized water

## COCCOCCOCCOCCOCCOCCOCCOCCOCCC[Si](C)(C)CC[Si](C)(C)C [Comparative-A, (CH3)3—Si—CH2CH2Si(CH3)2CH2CH2CH2O(CH2CH2O)8CH3]
[1]
  CMC: 0.005 wt %
[1]; [6]
  Surface Tension: 23.7 mN/m
[1]; [7]
  Surface Tension: 24.4 mN/m
[1]; [8]
  Surface Tension: 25.4 mN/m
[1]; [9]
  Surface Tension: 34.8 mN/m
[1]; [10]
  Surface Tension: 48.7 mN/m
[1]; [11]
  Surface Tension: 62.4 mN/m
[1]; [12]
  Surface Tension: 30.1 mN/m
[2]; [13]
  Spread diameter: 43
[2]; [14]
  Spread diameter: 54

## C[N+](C)(CC(O)CO)CC(O)COCCC[Si](C)(C)CC[Si](C)(C)C (stereo not drawn) [QC-2]
[3]
  Cloud Point (50 g/L): >95 °C
[2]; [13]
  Spread diameter: 10
[2]; [14]
  Spread diameter: 23
[2]; [15]
  Spread diameter: 40

## C[N+](C)(CCCO)CC(O)COCCC[Si](C)(C)CC[Si](C)(C)C (stereo not drawn) [QC-1A]
[4]
  Spread Diameter (Actual): 48 mm
[4]; weighted average
  Spread Diameter (Predicted): 48 mm

## (CH3)3—Si—O—Si(CH3)(Z)—OS i(CH3)3 Where Z=—CH2CH2CH2O(CH2CH2O)8CH3 [Comparative-B]
[1]
  CMC: 0.01 wt %
[1]; [6]
  Surface Tension: 20.6 mN/m
[1]; [7]
  Surface Tension: 20.7 mN/m
[1]; [8]
  Surface Tension: 21.5 mN/m
[1]; [9]
  Surface Tension: 34.2 mN/m
[1]; [10]
  Surface Tension: 45.1 mN/m
[1]; [11]
  Surface Tension: 52.9 mN/m
[1]; [12]
  Surface Tension: 27.0 mN/m
[3]; 5% surfactant in glyphosate-isopropyl amine 480 g/L, 20-22° C.
  Dispersibility in the glyphosate formulation (visual): insoluble in the glyphosate formulation
[3]
  Cloud Point (50 g/L): Cloudy at 20° C.^a.

## C[N+](C)(CCCO)CC(O)COCCC[Si](C)(O[Si](C)(C)C)O[Si](C)(C)C (stereo not drawn) [TSQ-1]
[1]
  CMC: 0.009 wt %
[1]; [6]
  Surface Tension: 19.9 mN/m
[1]; [7]
  Surface Tension: 20.2 mN/m
[1]; [8]
  Surface Tension: 22.3 mN/m
[1]; [9]
  Surface Tension: 38.3 mN/m
[1]; [10]
  Surface Tension: 55.6 mN/m
[1]; [11]
  Surface Tension: 66.7 mN/m
[1]; [12]
  Surface Tension: 28.7 mN/m
[2]; [13]
  Spread diameter: 15
[2]; [14]
  Spread diameter: 30

## CCCC[N+](C)(C)CC(O)COCCC[Si](C)(C)CC[Si](C)(C)C (stereo not drawn) [QC-3]
[3]
  Cloud Point (50 g/L): Hazy at 20 °C
[2]; [13]
  Spread diameter: 14
[2]; [14]
  Spread diameter: 23
[2]; [15]
  Spread diameter: 36

## C[N+](C)(CCCO)CC(O)COCCC[Si](C)(C)CC[Si](C)(C)C (stereo not drawn) [QC-1]
[5]; 2 HAT, even at a 4x lower use rate
  Glyphosate uptake relative to TAE-2: significantly enhances glyphosate uptake
[5]; adjuvant 0.05 % w/v, 2 HAT
  Uptake % of 14C-glyphosate: 40.1 d %
[5]; adjuvant 0.05 % w/v, 24 HAT
  Uptake % of 14C-glyphosate: 57.6 be %
[5]; adjuvant 0.1 % w/v, 2 HAT
  Uptake % of 14C-glyphosate: 34.8 e %
[5]; adjuvant 0.1 % w/v, 24 HAT
  Uptake % of 14C-glyphosate: 56.2 c %
[5]; adjuvant 0.2 % w/v, 2 HAT
  Uptake % of 14C-glyphosate: 36.2 de %
[5]; adjuvant 0.2 % w/v, 24 HAT
  Uptake % of 14C-glyphosate: 61.6 b %
[3]
  Cloud Point (50 g/L): >95 °C
[2]; [13]
  Spread diameter: 13
[2]; [14]
  Spread diameter: 33
[2]; [15]
  Spread diameter: 47
